Laboratory results taken from ChEMBL document CHEMBL1201862, “PubChem BioAssay data set” (2004).
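Five compound concentrations were applied to cells in 96-well plates for 48 hours; endpoints were derived by simple linear interpolation of the resulting dose-response curve. Here, GI50 denotes the concentration required for 50% inhibition of growth.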 Activity calls are given as the source filed them. Rule as the data show it: active = GI50 up to about 1.1 µM and inactive = higher.

Experiments:
Experiment in all cases: NCI-60 cell line screen, 48 h
RXF 393 = system: RXF 393
CAKI-1 = system: CAKI-1
MDA-MB-435 = system: MDA-MB-435
NCI-H226 = system: NCI-H226
HOP-92 = system: HOP-92
786-0 = system: 786-0
MDA-MB-231 = system: MDA-MB-231
SNB-75 = system: SNB-75
U-251 = system: U-251
MCF7 = system: MCF7
MDA-N = system: MDA-N
ACHN = system: ACHN
SK-OV-3 = system: SK-OV-3
OVCAR-8 = system: OVCAR-8
HCT-15 = system: HCT-15
NCI-H460 = system: NCI-H460
SK-MEL-28 = system: SK-MEL-28
SNB-19 = system: SNB-19
HOP-62 = system: HOP-62
RPMI-8226 = system: RPMI-8226

SMILES | GI50 (RXF 393) | GI50 (CAKI-1) | GI50 (MDA-MB-435) | GI50 (NCI-H226) | GI50 (HOP-92) | GI50 (786-0) | GI50 (MDA-MB-231) | GI50 (SNB-75) | GI50 (U-251) | GI50 (MCF7) | GI50 (MDA-N) | GI50 (ACHN) | GI50 (SK-OV-3) | GI50 (OVCAR-8) | GI50 (HCT-15) | GI50 (NCI-H460) | GI50 (SK-MEL-28) | GI50 (SNB-19) | GI50 (HOP-62) | GI50 (RPMI-8226)
O=[N+]([O-])c1ccc(NN/N=N/c2ccc(-c3nc4ccccc4[nH]3)cc2)c([N+](=O)[O-])c1 | 47.3 µM (inactive) | 23.2 µM (inactive) | 54 µM (inactive) | 43.2 µM (inactive) | 43.8 µM (inactive) | 36.3 µM (inactive) | > 100 µM (inactive) | 96.6 µM (inactive) | 53.7 µM (inactive) | 4.27 µM (inactive) | 39.9 µM (inactive) | 19.4 µM (inactive) | 94.6 µM (inactive) | 22.5 µM (inactive) | 19.7 µM | 9.44 µM (inactive) | > 100 µM (inactive) | > 100 µM (inactive) | 42.6 µM (inactive) | 
CCCC(=O)OC(OC(=O)CCC)c1ccc([N+](=O)[O-])o1 | 17.2 µM (inactive) | 17.7 µM (inactive) | 20.7 µM (inactive) |  | 22.9 µM (inactive) | 18.3 µM (inactive) | 27.5 µM (inactive) | > 100 µM (inactive) | 34.3 µM (inactive) | 16.9 µM (inactive) | 20.1 µM (inactive) | 20.5 µM (inactive) | > 100 µM (inactive) | 32.2 µM (inactive) | 15.7 µM | > 100 µM (inactive) | 20.4 µM (inactive) | > 100 µM (inactive) | 62.8 µM (inactive) | 22.6 µM (inactive)
c1ccc(/C(=N/Nc2ccncn2)c2ccccn2)cc1 | 34.3 µM (inactive) | 15.5 µM (inactive) | 48.6 µM (inactive) | 15.8 µM (inactive) |  | 17.8 µM (inactive) | 32.2 µM (inactive) | 18.9 µM (inactive) | 39.6 µM (inactive) | 8.51 µM (inactive) | 58.5 µM (inactive) | 5.82 µM (inactive) | 23.7 µM (inactive) | 16.6 µM (inactive) | 24.4 µM | 30.1 µM (inactive) | 70.3 µM (inactive) | 46.8 µM (inactive) | 31.7 µM (inactive) | 9.75 µM (inactive)
O=[N+]([O-])C(/C=C(\Cl)[N+](=O)[O-])=C(Nc1ccccc1)Nc1ccccc1 | 4.65 µM (inactive) | 13.7 µM (inactive) | 5 µM (inactive) |  | 4.69 µM (inactive) | 3.7 µM (inactive) | 10.7 µM (inactive) | 1.26 µM (inactive) | 14.3 µM (inactive) | 0.843 µM (active) | 5.58 µM (inactive) | 13.2 µM (inactive) | 20.1 µM (inactive) | 8.41 µM (inactive) | 8.26 µM | 16.4 µM (inactive) | 9.86 µM (inactive) | 17.5 µM (inactive) |  | 2.28 µM (inactive)
COc1ccc(C[n+]2cccc(O)c2)cc1 | > 100 µM (inactive) |  | > 100 µM (inactive) | > 100 µM (inactive) | > 100 µM (inactive) | > 100 µM (inactive) | > 100 µM (inactive) |  | > 100 µM (inactive) | > 100 µM (inactive) | > 100 µM (inactive) | > 100 µM (inactive) | > 100 µM (inactive) | > 100 µM (inactive) | > 10 µM | > 100 µM (inactive) | > 100 µM (inactive) | > 100 µM (inactive) | > 100 µM (inactive) | 
CCOP(=O)(OCC)c1cc(-c2ccccc2)ccc1N | 33 µM (inactive) | > 100 µM (inactive) | > 100 µM (inactive) |  | 34.6 µM (inactive) | > 100 µM (inactive) | > 100 µM (inactive) | 81.7 µM (inactive) | > 100 µM (inactive) | > 100 µM (inactive) | > 100 µM (inactive) | > 100 µM (inactive) | > 100 µM (inactive) | > 100 µM (inactive) | > 100 µM | > 100 µM (inactive) | > 100 µM (inactive) | > 100 µM (inactive) | 37.2 µM (inactive) | > 100 µM (inactive)
C=CC(=O)N1C/C(=C\c2ccc(N(C)C)cc2)C(=O)/C(=C/c2ccc(N(C)C)cc2)C1 | 43.1 µM (inactive) | > 100 µM (inactive) | 87.5 µM (inactive) | > 100 µM (inactive) | > 100 µM (inactive) | 42.1 µM (inactive) | > 100 µM (inactive) | > 100 µM (inactive) | > 100 µM (inactive) | 4.73 µM (inactive) | 17.8 µM (inactive) | > 100 µM (inactive) |  | > 100 µM (inactive) | 18.2 µM | > 100 µM (inactive) | > 100 µM (inactive) | > 100 µM (inactive) | > 100 µM (inactive) | 
CCOC(=O)C1=COC(C)(CCc2ccccc2)CC1=O (stereo not given) | 59.4 µM (inactive) | > 100 µM (inactive) | 51.8 µM (inactive) |  |  | > 100 µM (inactive) | 82.6 µM (inactive) | > 100 µM (inactive) | 41.3 µM (inactive) | 44 µM (inactive) | 87.7 µM (inactive) | > 100 µM (inactive) | > 100 µM (inactive) | 52.4 µM (inactive) | > 100 µM | 92.5 µM (inactive) | > 100 µM (inactive) | 56.2 µM (inactive) | > 100 µM (inactive) | 41.9 µM (inactive)
C=CCc1ccccc1C1CC2(C(=O)OC)OC1C(C(=O)OC)=C2C(=O)OC (stereo not given) | > 10 µM (inactive) | > 10 µM (inactive) | > 10 µM (inactive) | > 10 µM (inactive) |  | > 10 µM (inactive) | > 10 µM (inactive) |  | > 10 µM (inactive) | > 10 µM (inactive) | > 10 µM (inactive) | > 10 µM (inactive) | > 10 µM (inactive) | > 10 µM (inactive) | > 10 µM | > 10 µM (inactive) | > 10 µM (inactive) | > 10 µM (inactive) | > 10 µM (inactive) | > 10 µM (inactive)
CNC(=O)C(C)C1C(=O)/C(=C(O)/C=C\C(C)=C\C(C)C2OC3(C)OC(C=CC34CO4)C2C)C(=O)N1C1CCC(O)C(C)O1 (stereo not given) | > 100 µM (inactive) | > 100 µM (inactive) | > 100 µM (inactive) |  |  | > 100 µM (inactive) | > 100 µM (inactive) | > 100 µM (inactive) | > 100 µM (inactive) | > 100 µM (inactive) | > 100 µM (inactive) | > 100 µM (inactive) | > 100 µM (inactive) | > 100 µM (inactive) | > 100 µM | > 100 µM (inactive) | > 100 µM (inactive) | > 100 µM (inactive) | > 100 µM (inactive) | > 100 µM (inactive)
O/N=C1/Nc2ccccc2C(=S)N2CSCC12 (stereo not given) | > 100 µM (inactive) | > 100 µM (inactive) | 19.4 µM (inactive) | > 100 µM (inactive) |  | 58.2 µM (inactive) | > 100 µM (inactive) | 16.4 µM (inactive) | > 100 µM (inactive) | 52.5 µM (inactive) | 18.3 µM (inactive) | > 100 µM (inactive) | > 100 µM (inactive) | > 100 µM (inactive) | > 100 µM | 17.3 µM (inactive) | > 100 µM (inactive) | 50.4 µM (inactive) | > 100 µM (inactive) | > 100 µM (inactive)
CC1=C(C(=O)OCCc2ccc([N+](=O)[O-])cc2)C(c2ccccc2[N+](=O)[O-])C(C(=O)OC(C)C)=C(C)N1 (stereo not given) | 3.22 µM (inactive) | 3.4 µM (inactive) | 5 µM (inactive) | 5.45 µM (inactive) |  | 3.08 µM (inactive) | 4.91 µM (inactive) | 4.24 µM (inactive) | 4.73 µM (inactive) | 3.78 µM (inactive) | 4.51 µM (inactive) | 3.4 µM (inactive) | 5.81 µM (inactive) | 3.66 µM (inactive) | 4.21 µM | 2.6 µM (inactive) | 7.57 µM (inactive) | 5.61 µM (inactive) | 8.67 µM (inactive) | 2.93 µM (inactive)
COc1ccc(S(=O)(=O)Nc2ccc(-c3csc(N4C(=O)/C(=C/c5ccccc5)N=C4c4ccccc4)n3)cc2)cc1Cl | 24.4 µM (inactive) | 62.8 µM (inactive) | 27.5 µM (inactive) | 33.2 µM (inactive) | 24.4 µM (inactive) | 46.5 µM (inactive) | 16.1 µM (inactive) | 29.2 µM (inactive) | 23.7 µM (inactive) | 36.8 µM (inactive) | 38.7 µM (inactive) | 34.8 µM (inactive) | 79.3 µM (inactive) | 31.5 µM (inactive) | 20.2 µM | 31.3 µM (inactive) | 57.4 µM (inactive) | 44.2 µM (inactive) | 36.4 µM (inactive) | 
COc1c(C)c(C/C=C(\C)CC/C=C(\C)CC/C=C(\C)CC/C=C(\C)CCC=C(C)C)c(OC)c(OC)c1OC | 17.4 µM (inactive) | 81.3 µM (inactive) | 31.1 µM (inactive) |  | 15.6 µM (inactive) | 16.9 µM (inactive) | 28.3 µM (inactive) | 43 µM (inactive) | 79.6 µM (inactive) | 51.1 µM (inactive) | 31.4 µM (inactive) | 16.4 µM (inactive) | > 100 µM (inactive) | 18.4 µM (inactive) | 92 µM | 8.81 µM (inactive) |  | > 100 µM (inactive) | 15.6 µM (inactive) | 
CCC[C@@H]1C(=O)N=C(N)N1C(=O)OCc1ccccc1 | > 100 µM (inactive) | > 100 µM (inactive) | > 100 µM (inactive) | > 100 µM (inactive) |  | > 100 µM (inactive) | > 100 µM (inactive) | > 100 µM (inactive) | > 100 µM (inactive) | > 100 µM (inactive) | > 100 µM (inactive) | > 100 µM (inactive) |  | > 100 µM (inactive) | > 100 µM | > 100 µM (inactive) | > 100 µM (inactive) | > 100 µM (inactive) | > 100 µM (inactive) | > 100 µM (inactive)
